One data set concerns the target recombinant human PDE5 (Homo sapiens, UniProt O76074). Kind of data set: Inhibitory effect on cGMP-PDE (PDE5 IC50), one-step assay adapted from Wells et al. In kind it is biochemical. The settings on record: 0.15 μM 8-[H3]-cGMP, 30 minutes incubation, 2% DMSO. Here is the method: The compounds of structural formula (I) were tested for an ability to inhibit PDE5. The ability of a compound to inhibit PDE5 activity is related to the IC50 value for the compound, i.e., the concentration of inhibitor required for 50% inhibition of enzyme activity. The IC50 value for compounds of structural formula (I) were determined using recombinant human PDE5.
(§1) cGMP-PDE activity of compounds of the present invention was measured using a one-step assay adapted from Wells et al., Biochim. Biophys. Acta, 384, 430 (1975). The reaction medium contained 50 mM Tris-HCl, pH 7.5, 5 mM magnesium acetate, 250 μg/ml 5′-Nucleotidase,1 mM ECTA, and 0.15 μM 8-[H^3]-cGMP. Unless otherwise indicated, the enzyme used was a human recombinant PDE5 (ICOS Corp., Bothell, Wash.).
(§2) Compounds of the invention were dissolved in DMSO finally present at 2% in the assay.

Another data set deals with T1, PDE5 (bovine aorta) (Bos taurus, UniProt Q28156).
T1 construct: from tissue; host or cells: bovine aorta
As to the kind of experiment: Inhibitory effect on cGMP-PDE (PDE5 IC50), bovine aorta enzyme. The data set is classed as biochemical. The settings on record: enzyme marked (bovine aorta) in the cell. As to the method: as §1, §2

A word on the IC50: it is the concentration at which inhibition is half-maximal. For orientation: melting point means the temperature, or range, at which the solid turns liquid.

For the compound `CC(C)C[C@H]1c2[nH]c3ccccc3c2C[C@H]2C(=O)N(C)CC(=O)N21` (racemic) [Example 19, (+−,cis)-6-Isobutyl-2-methyl-2,3,6,7,12,12a-hexa-hydropyrazino[1′2′:1,6]pyrido[3,4-b]indole-1,4-dione], the IC50 at recombinant human PDE5 amounted to 4800 nM.
At PDE5 (bovine aorta), `CN1CC(=O)N2[C@@H](C3CCCCC3)c3[nH]c4ccccc4c3C[C@H]2C1=O` (racemic) [Example 20, (+−, cis)-6-Cyclohexyl-2-methyl-2,3,6,7,12,12a-hexa-hydropyrazino[1′2′:1,6]pyrido[3,4-b]indole,1,4-dione] registered an IC50 of 230 nM.
For the compound `CN1CC(=O)N2[C@@H](c3cc4ccccc4o3)c3[nH]c4ccccc4c3C[C@H]2C1=O` [Example 1, (6R,12aS)-6-benzofuran-2-yl-2-methyl-2,3,6,7,12,12a-hexahydro-pyrazino [1′,2′:1,6]pyrido[3,4-b]indole-1,4-dione], the IC50 at recombinant human PDE5 was 130 nM.
`CN1CC(=O)N2[C@H](c3cc4ccccc4o3)c3[nH]c4ccccc4c3C[C@H]2C1=O` [Example 2] yielded a melting point of 195 to 198 °C. For the same compound, the half-maximal inhibitory concentration (IC50) at recombinant human PDE5 came out at 8730 nM.
`CN1CC(=O)N2[C@H](c3cc4ccccc4o3)c3[nH]c4ccccc4c3C[C@@H]2C1=O` [Example 3, (6S,12aR)-6-benzofuran-2-yl-2-methyl-2,3,6,7,12,12a-hexahydropyrazino[1′,2′:1,6]-pyrido[3,4-b]indole-1,4-dione] showed a melting point of 265 to 268 °C. For the same compound, at recombinant human PDE5, the half-inhibitory concentration (IC50) was found to be 16 nM.
On to `CN1CC(=O)N2[C@@H](c3cc4ccccc4o3)c3[nH]c4ccccc4c3C[C@@H]2C1=O` [Example 4], for which the half-inhibitory concentration (IC50) on recombinant human PDE5 was found to be 880 nM.
With `Cc1c([C@H]2c3[nH]c4ccccc4c3C[C@H]3C(=O)N(C)CC(=O)N23)sc2ccccc12` [Example 5, (6R,12aS)-2-methyl-6-(e-methyl-benzo[b]thiophen-2-yl)-2,3,6,7,12,12a-hexahydro-pyrazino[1′,2′:1,6]pyrido[3,4-b]indole-1,4-dione], the melting point fell in the range of 230 to 234 °C. Also, the IC50 on recombinant human PDE5 was determined as 25 nM.
Turning to `Cc1c([C@@H]2c3[nH]c4ccccc4c3C[C@H]3C(=O)N(C)CC(=O)N23)sc2ccccc12` [Example 6], at recombinant human PDE5, the IC50 was 40 nM.
On the same count and under the same terms, in the case of `Cc1c([C@H]2c3[nH]c4ccccc4c3C[C@@H]3C(=O)N(C)CC(=O)N23)sc2ccccc12` [Example 7, (6R,12aR)-2-methyl-6-(3-methylbenzo[b]thiophen-2-yl)-2,3,6,7,12,12a-hexahydropyrazino[1′2′:1,6]-pyrido[3,4-b]indole-1,4-dione] it was 1570 nM; in that of `Cc1c([C@@H]2c3[nH]c4ccccc4c3C[C@@H]3C(=O)N(C)CC(=O)N23)sc2ccccc12` [Example 8], 1 nM; in that of `CN1CC(=O)N2[C@H](c3cc4ccoc4s3)c3[nH]c4ccccc4c3C[C@@H]2C1=O` [Example 9], 12 nM.
On the same count and under the same terms, in the case of `COC[C@@H]1c2[nH]c3ccccc3c2C[C@@H]2C(=O)N(C)CC(=O)N21` [Example 15] it was 333 nM.
`CN1CC(=O)N2[C@H](Cc3c([nH]c4ccccc34)[C@H]2COCc2ccccc2)C1=O` [Example 16, (6S,12aR)-6-Benzyloxymethyl-2-methyl-2,3,6,7,12,12a-hexahydropyrazino[1′2′:1,6]pyrido-[3,4-b]indole-1,4-dione] showed a melting point of 181 to 187 °C. On recombinant human PDE5, the IC50 is 1500 nM.
For the compound `CN1CC(=O)N2[C@H](Cc3c([nH]c4ccccc34)[C@H]2CO)C1=O` [Example 17, (6S,12aR)-6-Hydroxymethyl-2-methyl-2,3,6,7,12,12a-hexahydropyrazino-[1′2′:1,6]pyrido[3,4-b]indole-1,4-dione], the IC50 at recombinant human PDE5 stood at 23000 nM.
With `COCOC[C@@H]1c2[nH]c3ccccc3c2C[C@@H]2C(=O)N(C)CC(=O)N21` [Example 18, (6S,12aR)-Methoxymethoxymethyl-2-methyl-2,3,6,7,12,12a-hexahydropyrazino-[1′,2′:1,6]pyrido[3,4-b]indole-1,4-dione], the melting point was in the range of 180 to 185 °C. Besides, on recombinant human PDE5, the IC50 came to 195 nM.
Take `CN1CC(=O)N2[C@@H](C3CC=CCC3)c3[nH]c4ccccc4c3C[C@H]2C1=O` (stereo partly drawn) [Example 21, (+−, cis)-6-Cyclohex-3-enyl-2-methyl-2,3,6,7,12,12a-hexahydropyrazino[1′2′:1,6]pyrido[3,4-b]indole-1,4-dione]: the half-maximal inhibitory concentration (IC50) at recombinant human PDE5 was 560 nM.

Source of the values: patent US6962918B2, “Hexahydropyrazino[1'2';1,6]pyrido[3,4-b]indole-1,4-diones for the treatment of cardiovascular disorders and erectile dysfunction” (Lilly Icos LLC., priority 2000, dated 2005).
